Where two headings read alike, the source gives them in different places.
Key:
[1] = Solubility assays in water, PBS and serum; type: physicochemical
Protocol: All the assays were carried out in triplicate. The average and standard deviation were calculated for the three replicates.

[2] = Permeability assays, Franz-type diffusion cell; design: Kd (partition coefficient): unit not given beside the values
Text: In this context, a polyethersulphone (PES-U) membrane was selected for the determination of these two parameters. The diffusion coefficient is associated with the amount of API diffused with time. Therefore, the increase in the diffusion coefficient is proportional to the speed of the drug's diffusion through the membrane. Another aspect to consider is that the solubility of the drug is proportional to the driving force. […] The chosen membrane was polyethersulphone (PES-U) with 150 μm thickness and 0.45 μm pore size (Sartorius Stedim Biotech, Göttingen, Germany), which was placed between the two compartments and held with a stainless-steel clamp. The receptor compartment was filled with PBS solution, and air bubbles were removed. […] The determination of the API diffused was performed by HPLC. The assays were performed with three replicates. […] The cumulative mass of drug diffused to the receptor compartment was determined taking into consideration the replacement of aliquots with fresh medium and the dilution derived from the addition of fresh buffer. […] According to a derived solution of Fick's law of diffusion, it is possible to determine the diffusion coefficient, D, of the API through the membrane. […] Cf and Ci are the final and initial concentrations in the receptor compartment, and Ct is the concentration in the receptor compartment at time t.

[3] = Thermogravimetric analysis (TGA); type: physicochemical; settings: 5 °C min^−1, argon
Protocol: Thermogravimetric analyses were performed over a temperature range from room temperature to 500 °C in a thermogravimetric analyzer from Setaram Labsys EVO (France) with a weighing precision of ±0.01%. Each run was conducted at a heating rate of 5 °C min^−1, under a highly pure argon atmosphere purged at 50 mL min^−1, with a mass sample between 8 and 10 mg.

L929 cells = experiment: Cell viability assay (MTS, CellTiter 96); type: cell-based; settings: 24 h exposure, 50 and 75 ppm
Protocol: The biological effect of compounds was evaluated on the L929 cell line (DSMZ—German Collection of Microorganisms and Cell Culture GmbH). […] Cells only incubated with complete media were used as negative control and DMSO was chosen […]. […] The amount of formazan product was measured in a microplate reader (VICTOR Nivo TM, PerkinElmer, Waltham, MA, USA) at 490 nm, as absorbance is directly proportional to the number of viable cells in culture. Cell viability was expressed as the percentage of cells exposed to extracts vs. controls. Statistical analysis was performed using GraphPad Prism 7.00 software. A two-way ANOVA test was performed as well as Tukey’s multiple comparison test.

[4] = PES-U membrane, 37 °C, 50 mg L^−1, 8-hour assay

Row | Molecule | Solubility in PBS 37 °C ([1]; PBS, 37 °C) [mg/mL] | Solubility in Serum 37 °C ([1]; serum, 37 °C) [mg/mL] | Solubility in Water 25 °C ([1]; water, 25 °C) [mg/mL] | Solubility in Water 37 °C ([1]; water, 37 °C) [mg/mL] | Kd (partition coefficient) [2] | Permeability [2] | ΔTons, onset shifted to lower temperatures vs neat [Na][T4] [3] | Diffusion [2, 4] | Permeability [2, 4] | Cell viability / cytotoxicity (L929 cells) | onset of the major weight decrease (degradation) [3] [°C]
1 | 1-(2-Hydroxyethyl)-3-Methylimidazolium Levothyroxine [[C2OHMiM][T4]] | 0.324 ± 0.004 | 0.321 ± 0.007 | 0.277 ± 0.034 | 0.379 ± 0.022 | 0.45 | 1.02 (×10^−5) cm s^−1 | ~ 30 °C |  |  |  | 
2 | NC(Cc1cc(I)c(Oc2cc(I)c(O)c(I)c2)c(I)c1)C(=O)[O-].[Na+] (centres unmarked) [[Na][T4], Levothyroxine sodium salt pentahydrate, reference compound] |  |  |  |  |  |  |  | 0.49 (×10^−6) cm^2 s^−1 | 2.04 (×10^−5) cm s^−1 | without losing their viability | 175

— article PMC10218257, “Ionic Levothyroxine Formulations: Synthesis, Bioavailability, and Cytotoxicity Studies” (International Journal of Molecular Sciences, 2023)
